Measured values taken from ChEMBL document CHEMBL3507680, “University of Dundee, Gates Library screen for HepG2 cell viability”.

Assay: Human HepG2 cell viability assay in 384 well format
Type: toxicity, cell-based
Parameters: dose 125 nL, time 70.5 hour; cytotoxicity at 70.5 h: concentration not given beside the values
Details: HepG2 cells, read-out: Inhibition
For `CCS(=O)(=O)N1CCC2(CCN(Cc3nccs3)CC2)CC1`, the cytotoxicity at 70.5 h was 15.2%.
In the case of `O=C(Nc1ccnc(OC2CCOC2)c1)c1cc(F)ccc1F` (stereo unspecified), the cytotoxicity at 70.5 h is reported as 14.1%.
`CC(=O)N1CCC(N2CC[C@H](c3nc4cc(F)ccc4o3)C2)CC1` gave a cytotoxicity at 70.5 h of 0.135%.
In the case of `CNC(=O)[C@H]1C[C@@H]2CN(S(=O)(=O)c3ccccc3)C[C@@H]2N1C(C)=O`, the cytotoxicity at 70.5 h is reported as -3.07%.
For `CC(C)N1CCn2c(nc3cc(C(N)=O)ccc32)C1`, the cytotoxicity at 70.5 h was -16.5%.
For `Cc1cnn(Cc2ccc(NC(=O)N3CCCCC3CO)cc2)c1` (stereo unspecified), the cytotoxicity at 70.5 h was 24.6%.
Compound `COc1c(C)cnc(CN2CCOC(Cn3cc(C)cn3)C2)c1C` (stereo unspecified) has a cytotoxicity at 70.5 h of 0.484%.
In the case of `Cc1cc(C)nc(N(C)CCn2ccnc2C)n1`, the cytotoxicity at 70.5 h is reported as -2.15%.
In the case of `CCn1cnnc1CNC(=O)N(C)C(C)c1cccs1` (stereo unspecified), the cytotoxicity at 70.5 h is reported as -0.961%.
`Cc1nc(CNC(=O)NCCC2=CCCC2)oc1C` gave a cytotoxicity at 70.5 h of 7.64%.
`CSCC[C@H](N)C(=O)NCc1cc2n(n1)CCCN(C(=O)N(C)C)C2` gave a cytotoxicity at 70.5 h of -8.91%.
For `CCc1sc(-c2nnc(CNCCn3cc(C)cn3)o2)cc1C`, the cytotoxicity at 70.5 h was -1.42%.
`CC(C)Oc1ccc2c(NC(=O)CN(C)C)nn(CC(F)(F)F)c2c1` gave a cytotoxicity at 70.5 h of -19%.
In the case of `CCc1ccc(NC(=O)CC2Cn3ncnc3NC2=O)cc1` (stereo unspecified), the cytotoxicity at 70.5 h is reported as -16.3%.
`NC(=O)C1CCCN(c2ccc(CNC(=O)c3csnn3)cc2)C1` (stereo unspecified) showed a cytotoxicity at 70.5 h of -6.98%.
In the case of `O=C(NCCNc1ncccn1)C1CCN(C(=O)N2CCCC2)CC1`, the cytotoxicity at 70.5 h is reported as -12.3%.
`COCCN(Cc1ccc(F)cc1Cl)C(=O)c1ccccn1` gave a cytotoxicity at 70.5 h of 9.84%.
`OC(CN(Cc1ccccc1)Cc1cccnc1)c1cccs1` (stereo unspecified) showed a cytotoxicity at 70.5 h of 10%.
`COCCNC(=O)[C@@]12CCO[C@@H]1CCN(Cc1scnc1C)C2` showed a cytotoxicity at 70.5 h of -2.1%.
Compound `Cc1cnn(C2CCCN(C(=O)Cc3ccc(-n4cccn4)cc3)C2)c1` (stereo unspecified) has a cytotoxicity at 70.5 h of -3.4%.
In the case of `CN1C(=O)c2ccc(C(=O)N(Cc3cnn(C)c3)C3CC3)cc2C1=O`, the cytotoxicity at 70.5 h is reported as -16.5%.
`CCc1ncc(CN[C@@H]2CCCN(C(C)=O)[C@H]2c2ccc(C)s2)cn1` showed a cytotoxicity at 70.5 h of -6.59%.
For `Fc1cnc(N2CCCC3(COCCN(c4nccs4)C3)C2)nc1` (stereo unspecified), the cytotoxicity at 70.5 h was -12.2%.
With `Cc1cc(CC(=O)NC(C)c2ccc(OCC3CC3)c(F)c2)n[nH]1` (stereo unspecified) the cytotoxicity at 70.5 h was -7.64%.
In the case of `O=S(=O)(NCCn1ccc(-c2ccncc2)n1)C1CC1`, the cytotoxicity at 70.5 h is reported as 0.267%.
For `CC(=O)N[C@@H](CC(C)C)C(=O)N1CCC(n2cc(C(C)(C)N)nn2)CC1`, the cytotoxicity at 70.5 h was -2.68%.
In the case of `NC(=O)CN(CC(=O)NCc1cccc(Cl)c1)C1CCCC1`, the cytotoxicity at 70.5 h is reported as -11.2%.
`CC(=O)N1CCC(c2[nH]ncc2S(C)(=O)=O)CC1` showed a cytotoxicity at 70.5 h of -5.52%.
In the case of `CC(C)CS(=O)(=O)N1C[C@H]2C[C@H](C(=O)N3CCN(C)CC3)[C@@H](C1)O2`, the cytotoxicity at 70.5 h is reported as -3.23%.
`COc1ccc(CCNC(=O)CC(NC(N)=O)c2ccccc2)cc1` (stereo unspecified) gave a cytotoxicity at 70.5 h of 14.7%.
With `O=C(NCCC(=O)N1CCCCCCC1)c1ccoc1` the cytotoxicity at 70.5 h was -1.22%.
With `O=C1NC2(CCCN(C(=O)CCn3cncn3)C2)Oc2ccccc21` (stereo unspecified) the cytotoxicity at 70.5 h was -4.04%.
`CN1CCC(c2cncc(C(=O)NCc3ccc(F)cc3)n2)CC1` gave a cytotoxicity at 70.5 h of -5.99%.
`Cn1nnc2c1C(COCc1ccccn1)CN(C(=O)c1ccsc1)C2` (stereo unspecified) gave a cytotoxicity at 70.5 h of -6.33%.
`Cc1nn(C)c(C)c1NC(=O)CNc1cccc(CC(F)(F)F)c1` showed a cytotoxicity at 70.5 h of -1.15%.
With `N#Cc1ccc(NC2CCN(c3ncccn3)CC2)cc1C(F)(F)F` the cytotoxicity at 70.5 h was 5.96%.
With `COc1cc(N2CC[C@@H]3O[C@@H](C(=O)NC(C)C)C[C@@H]32)ncn1` the cytotoxicity at 70.5 h was -8.65%.
`Cc1cc(Br)cnc1NCCN1CCC(N(C)C)CC1` gave a cytotoxicity at 70.5 h of -4.2%.
`CCn1c(C)nnc1SCCNc1cc(COC)ncn1` gave a cytotoxicity at 70.5 h of -22.7%.
`NC(=O)CC1CCCN(c2cncc(SCc3ccccc3)n2)C1` (stereo unspecified) gave a cytotoxicity at 70.5 h of -1.35%.
`O=C(NCCO)c1coc(CN2CCN(c3ccccc3F)CC2)n1` showed a cytotoxicity at 70.5 h of -5.22%.
With `CC1c2ncc(COCC3CC3)n2CCN1C(=O)c1ccn(C)n1` (stereo unspecified) the cytotoxicity at 70.5 h was -9.47%.
With `O=C(Nc1cccnc1)[C@H]1CN(Cc2ccco2)C[C@H]2OCC[C@@H]12` the cytotoxicity at 70.5 h was -7.09%.
Compound `O=C1COC2(CCN(Cc3ccco3)CC2)CN1Cc1cccnc1` has a cytotoxicity at 70.5 h of -7.11%.
Compound `CCCS(=O)(=O)N1CCC(NC(=O)c2ccc(Cl)s2)CC1` has a cytotoxicity at 70.5 h of -11.6%.
`CC(C)[C@H](NC(=O)c1cccc(CCC(C)(C)O)c1)C(N)=O` gave a cytotoxicity at 70.5 h of -2.04%.
Work on `O=C(CNC(=O)Nc1c(F)cc(F)cc1-c1ccccc1)NC1CC1` yielded a cytotoxicity at 70.5 h of -10.3%.
For `Cc1nc(CN2CCOCC23CCN(c2ccc(C#N)cc2)CC3)cs1`, the cytotoxicity at 70.5 h was -2.38%.
With `COCCC1CCCCN1Cc1nc(C2CC2)no1` (stereo unspecified) the cytotoxicity at 70.5 h was -9.77%.
Work on `COCCOc1ccc(NC(=O)N(C(C)C)C2CC2)cn1` yielded a cytotoxicity at 70.5 h of -3.25%.
`COc1ccc(NC(=O)c2ccc[nH]2)c(N2CCN(C(C)=O)CC2)n1` showed a cytotoxicity at 70.5 h of -0.755%.
With `CCOC(=O)Cc1n[nH]c(-c2cncc(Br)c2)n1` the cytotoxicity at 70.5 h was 7.76%.
Compound `N#Cc1ccsc1C(=O)N1CCCN(Cc2cscn2)CC1` has a cytotoxicity at 70.5 h of 5.01%.
`CC(=O)N1CCN([C@@H]2CC[C@@H](NC(=O)c3ccc(C)nc3)[C@H]2O)CC1` gave a cytotoxicity at 70.5 h of -5.95%.
Compound `CCCN(CC1COc2ccccc2O1)C(=O)CCN1C(=O)CCC1=O` (stereo unspecified) has a cytotoxicity at 70.5 h of -18.8%.
For `Cc1c[nH]c(CN2CC[C@@]3(O)CCN(C(=O)C4CCCC4)C[C@H]3C2)n1`, the cytotoxicity at 70.5 h was 19.2%.
Compound `Cc1cc(C)n(CC2CN(CCOc3cccc(C#N)c3)CCO2)n1` (stereo unspecified) has a cytotoxicity at 70.5 h of 0.061%.
In the case of `C=C(C)COc1ccccc1C(=O)NCCc1nncn1C`, the cytotoxicity at 70.5 h is reported as 25.1%.
`Cn1ccnc1CN1CCCC1CCc1ccccc1` (stereo unspecified) showed a cytotoxicity at 70.5 h of 2.44%.
For `COc1ccsc1C(=O)N1CCCC(n2nc(C)nc2C)C1` (stereo unspecified), the cytotoxicity at 70.5 h was 3.22%.
`Cc1cc2ccccc2n1CCC(=O)N1CCC[C@H]1C(N)=O` gave a cytotoxicity at 70.5 h of -6.97%.
`CCc1nc2c(s1)C(N(C)C(C)=O)CCC2` (stereo unspecified) showed a cytotoxicity at 70.5 h of -7.14%.
Work on `CCOc1ccc(NC(=O)c2scnc2CC)cc1CO` yielded a cytotoxicity at 70.5 h of 1.88%.
For `CNC(=O)CCOC(=O)c1cccc(-n2cccn2)c1`, the cytotoxicity at 70.5 h was -10.7%.
For `Cc1nn(C)c(C)c1CCC(=O)N1CCCOC(Cn2cccn2)C1` (stereo unspecified), the cytotoxicity at 70.5 h was -2.69%.
With `O=c1c(NCc2ccco2)c(NCC(O)CN2CCOCC2)c1=O` (stereo unspecified) the cytotoxicity at 70.5 h was -6.2%.
`CNS(=O)(=O)CC1CCCN1C(=O)c1cccc(Cl)c1` (stereo unspecified) showed a cytotoxicity at 70.5 h of -7.35%.
`NC(=O)c1cc(NC(=O)N2CCCCCC2)ccc1F` gave a cytotoxicity at 70.5 h of 35.1%.
`CN1CCCN(c2nc(C3CC3)ns2)CC1` showed a cytotoxicity at 70.5 h of -3.92%.
Compound `Cc1cc(C)nc(N2CCCC(Cn3cc(CN(C)C)nn3)C2)n1` (stereo unspecified) has a cytotoxicity at 70.5 h of -6.18%.
Compound `CC(C)[C@@H]1CN(c2ccc(F)cn2)C[C@H]1NS(C)(=O)=O` has a cytotoxicity at 70.5 h of 12.1%.
In the case of `Cc1ccc(C(=O)NC(C)Cn2cccn2)c(=O)[nH]1` (stereo unspecified), the cytotoxicity at 70.5 h is reported as 8.15%.
`CN(C)Cc1ccnc(C2CCCN2Cc2cc3ccccc3s2)n1` (stereo unspecified) showed a cytotoxicity at 70.5 h of -1.24%.
Work on `Cc1nc(CN(CCS(C)(=O)=O)C(C)C)cs1` yielded a cytotoxicity at 70.5 h of -8.28%.
For `COCCC1(CO)CCCN(C(=O)c2ccc(C(C)C)[nH]c2=O)C1` (stereo unspecified), the cytotoxicity at 70.5 h was 11.1%.
`CCOCC(=O)Nc1ncc(I)cc1C` showed a cytotoxicity at 70.5 h of -7.61%.
`CCC1CCCCN1C(=O)c1ccnc(N(C)C)c1` (stereo unspecified) showed a cytotoxicity at 70.5 h of -0.362%.
`Cc1cnn(CCNCc2c(C(C)C)nn(C)c2Cl)c1` showed a cytotoxicity at 70.5 h of -2.72%.
In the case of `CC1CCN(C(=O)[C@@H]2C[C@H]3OCC[C@H]3N(Cc3ccoc3)C2)CC1`, the cytotoxicity at 70.5 h is reported as -2.6%.
`CC(C)Oc1ncccc1CNC(=O)c1cc(C2CC2)on1` gave a cytotoxicity at 70.5 h of 16%.
For `O=C(c1ccc(CN2CCCC2)cc1)N1CCCC(n2cccn2)C1` (stereo unspecified), the cytotoxicity at 70.5 h was -5.06%.
